# Patent US4309559A, “Sulphonamides useful as pesticides” (FBC Limited, priority 1977, dated 1982)
# Read-outs that look alike come from different tables or passages of the source.
# Legend:
# [1] = tested on: rice blast Pyricularia oryzae; type: in vivo; details: soil and leaves, 7 days, controls less than 5%
# [2] = tested on: potato blight Phytophthora infestans; type: in vivo; details: 5 days, controls less than 5%
# [3] = tested on: Pythium ultimum; assay: Fungal growth on the surface of soil infected with damping-off disease organism; type: in vivo; details: 300 ppm; 6 days, 25° C.; 0-8 scale (Examples 233, 234, 268)
# Protocol: (§1) A one week old maize meal/sand culture of the damping-off disease organism Pythium ultimum was thoroughly mixed by hand with clean sterile John Innes No. 1 potting compost in the ratio of 3 kg culture to 12 liters of soil. The infected soil was then left for approximately 18 hours before use. Each of the compounds listed below was ground together with a wetting agent, Tween 20 (1% of final volume), until a solution or fine suspension was produced which was then diluted with distilled water to give 160 ml of solution containing 1500, 500, 150 or 50 ppm active ingredient. 15 ml aliquots of this solution were added to 75 g portions of the soil infected with Pythium ultimum which were contained in small plastic cartons, 60 mm diameter×55 mm high. Fifteen cabbage seeds, variety Flower of Spring, were placed in a circular depression in the treated infected soil, recovered, and the whole sealed with a plastic cap. The cartons were then placed in a constant temperature room at 25° C.±1° C. Four replications per treatment were made with one additional treatment where seeds were sown in soil which was chemically treated only, i.e. there was no infection. This latter treatment was included to measure the direct effect of the chemical on the germination of the seed. After six days the cartons were removed from the controlled temperature chamber and assessed for degree of fungal growth on the soil surface and percentage of seedling emergence. The results of both these assessments are expressed in a 0-8 scale as follows:
# (§2) One week old maize meal/sand culture of the damping-off disease organism Pythium ultimum was thoroughly mixed by hand with clean sterile John Innes No. 1 potting compost in the ratio of 3 kg culture to 12 liters of soil. This infected soil was then left for approximately 18 hours before use. The compounds listed in the Table below were each ground with the wetting agent Tween 20 (1% of final volume), until a solution or fine suspension was produced, which was then diluted with distilled water to give 160 ml of solution containing 1500 or 500 parts per million (ppm) active ingredient. 15 ml aliquots of this solution were added to 75 g portions of the soil infected with Pythium ultimum which were contained in small plastic cartons, 60 mm diameter×55 mm high.
# (§3) Fifteen cabbage seeds, variety Flower of Spring, were placed in a circular depression in the treated infected soil, recovered, and the whole sealed with a plastic cap. The cartons were then placed in a constant temperature room at 25° C.±1° C. Four replications per treatment were made, with one additional treatment where seeds were sown in soil which was chemically treated only, i.e. there was no infection. This latter treatment was included to measure the direct effect of the chemical on the germination of the seed.
# (§4) After six days, the cartons were removed from the controlled temperature chamber and assessed for degree of fungal growth on the soil surface and percentage of seedling emergence. The results of both these assessments are expressed in a 0-8 scale as follows:
# (§5) N-(2-oxopropyl)-3',4'-dimethyl-methanesulphonanilide was tested at a dose rate of 300 ppm in the test described in Examples 233 and 234. It gave a mycelial control score of 0 and a germination score of 3 whereas the untreated samples gave a score of 0 for both.
# [4] = tested on: Pythium ultimum; assay: Cabbage seedling emergence in soil infected with Pythium ultimum; type: in vivo, Pythium ultimum (on cabbage, variety Flower of Spring); details: 300 ppm; 6 days, 25° C.; 0-8 scale (Examples 233, 234, 268)
# Protocol: as §1, §2, §3, §4, §5
# [5] = tested on: barley powdery mildew Erysiphe graminis; assay: Barley powdery mildew control on barley plants; type: in vivo; details: 2000 ppm; soil and leaves; 10 days; controls less than 5%
# [6] = tested on: vine downy mildew, Plasmopara viticola; assay: Vine downy mildew control on vine plants (application to soil and leaves); type: in vivo; details: 2000 ppm, 12 days, controls less than 5%
# Protocol: Aqueous acetone solutions of each of the compounds listed in the Table below, containing 2000 parts per million (ppm), together with 125 ppm of a suitable wetting agent, were applied to the soil surrounding the roots and leaves of vine plants having five fully expanded leaves.
# The treated plants, together with controls treated with wetting agent alone, were inoculated 24 hours after the chemical application with an aqueous suspension of sporangia of the disease organism known as vine downy mildew, Plasmopara viticola.
compound,measurement,setting,value
CON=C(C)CN(c1c(C)cccc1C)S(C)(=O)=O [Example 249],"% Control, rice blast",[1]; 500 ppm,66%
same,"% Control, potato blight",[2]; 500 ppm,74%
"CC(=O)CN(c1ccc(C)c(C)c1)S(C)(=O)=O [Example 272, N-(2-oxopropyl)-3',4'-dimethylmethanesulphonanilide]",Mycelial Control Score,[3],0 (<20% inhibition)
same,Germination Score,[4],3 (45-54% inhibition)
same,"% Control, rice blast",[1]; 2000 ppm,67%
same,"% Control, potato blight",[2]; 2000 ppm,62%
same,"% Control, barley powdery mildew",[5],99%
"Cc1cccc(Cl)c1N(CC1(C)OCCO1)S(C)(=O)=O [Example 230, N-[(2-methyl-1,3-dioxolan-2-yl)methyl]-2'-chloro-6'-methylmethanesulphonanilide]",% Control Vine Downing Mildew,[6],80%
CS(=O)(=O)N(CC#N)c1ccc(SC#N)cc1 [Example 141],"% Control, rice blast",[1]; 2000 ppm,84%
